From US9376449B2, “Indole carboxamide derivative” (Astellas Pharma Inc., priority 2012, dated 2016)
pEC50: −log10 of the molar value.

Columns and labels:
[1] = tested on: 3T3; experiment: In vitro 3T3 NRU phototoxicity test; type: cell-based
Procedure: Test Example 6 Drug Pharmacokinetic Test, Safety Pharmacology Test, and Toxicity Test
Using some Example compounds of the present invention, a drug Pharmacokinetic test, a safety pharmacology test, and a toxicity test were carried out.
(iii) For the toxicity test, for example, an in vitro phototoxicity test was carried out. The evaluation of the in vitro phototoxicity test was carried out in accordance with Guidance for industry photosafety testing, Center for Drug Evaluation and Research Food and Drug Administration, 2003, which is a guideline of FDA (U.S. Food and Drug Administration), and Note for guidance on photosafety testing (CPMP/SWP/398/01, 2002) which is a guideline of EMA (European Medicines Agency), and the method described in OECD guideline for testing of chemicals 432: In vitro 3T3 NRU phototoxicity test, 2004, which is a test method described in the report of OECD.

[2] = CNS penetration: CSF to plasma unbound concentration ratio in rat; type: in vivo; details: CSF and plasma (unbound), iv, 15 minutes after intravenous administration, CCSF/Cplasma,u, read-out: Kp,uu,CSF,iv15min
Procedure: Test Example 4 Test for Evaluating CNS Penetration
(1) Measurement of Unbound Fraction (fp) in Rat Plasma
A test compound (100 μg/mL, 50% acetonitrile solution) at 1% (v/v) with respect to the amount of the plasma was added to rat plasma, and dispensed to a sample for a supernatant and a sample for the plasma. The sample for a supernatant was ultracentrifuged at 436,000×g and 37° C. for 140 minutes, and the sample for the plasma was incubated at 37° C. for 140 minutes.
After 140 minutes, the sample for a supernatant after the ultracentrifugation and the sample for the plasma were taken, and mixed with the blank plasma or the blank supernatant, respectively. Acetonitrile including an internal standard material was added to each of the samples, and after the centrifugation at 2150×g and 4° C. for 10 minutes the supernatant was injected into LC-MS/MS.
The unbound fraction in the plasma was calculated by the following equation.
(wherein fp: an unbound fraction in the plasma and D: a dilution rate of the plasma. fu,app=peak area ratio of supernatant sample/peak area ratio of the plasma sample, and peak area ratio=peak area of test compound/peak area of internal standard material).
(2) The CSF to Plasma Unbound Concentration Ratio in Rat
A 50% acetonitrile solution and an acetonitrile including internal standard material was added to the collected plasma or CSF. After centrifugation at 4° C. and 2150×g for 10 minutes, the supernatant was injected into LC-MS/MS, and the total concentration of the test compound in the plasma (Cplasma,t) and the concentration of the test compound in CSF (CCSF) were obtained. The unbound concentration in the plasma (Cplasma,u) of the test compound and the CSF-to plasma unbound concentration ratio (Kp,uu,CSF) of the test compound was calculated by the following equation.
(§1) Ex represents Example No. of the test compound.

[3] = tested on: urethral pressure; experiment: Effect of test compound on urethral pressure in anesthetized rats; type: in vivo, rat; details: 0.1 mg/kg intravenously, urethane-anesthetized SD female rats
Source text: Test Example 3 Test to Evaluate Effect of Test Compound on Urethral Pressure
It has been reported that an increase in the urethra pressure is useful for the treatment of urinary incontinence, particularly stress urinary incontinence (for example, Drugs, 64, 14, 1503-1516 (2004)). In order to confirm whether the compound of the present invention increases the urethra pressure and thus is useful for the treatment of urinary incontinence, particularly stress urinary incontinence, the following tests were carried out.
SD female rats were anesthetized with urethane and subjected to laparotomy. Then, the bladder apex was incised and a catheter was inserted from the bladder apex. Further, the catheter tip was ligated and fixed to be located in the proximal urethra portion. The catheter was connected to a pressure transducer and an infusion pump. Further, a catheter for administrating the compound was fitted into the femoral vein. Physiological saline was continuously infused into the urethra and the perfusion pressure in the urethra was measured. After the urethral pressure was stabilized, the test compound that had been dissolved in physiological saline, or physiological saline including 5% dimethylacetamide and 0.5% Cremophor was administered intravenously at 0.1 mg/kg, and a change in urethral pressures was measured.
Further, the results of administering an active metabolite of midodrine (ST-1059: purchased from CHEMIZON) (J. Urology, 118, 980-982 (1977)) which is an α1 adrenoceptor agonist and has an effect on stress urinary incontinence in rat doses (0.01 mg/kg) presumed to correspond to the clinical doses are referenced and shown in the Tables below. The increment value in the urethra pressures of ramelteon and the Example compounds of the present invention at the time of administration are shown in Table 4. Ex represents Example No. of the test compound.

[4] = tested on: isolated urethra; experiment: Isolated urethra contractile action; design: species or system rat; details: test compound at 1 μM; contractile response by 10 μM phenylephrine as 100%; SD female rat urethra; read-out: Isolated urethra contraction (%)
Procedure: Test Example 2 Isolated Urethra Contractile Action
(1) Evaluation Test on Urethra Contractile Action of Test Compound Using Isolated Urethra
The urethra was isolated from an SD female rat having a body weight of 100 to 500 g. The isolated urethra was incised longitudinally to give a rectangular strip specimen having a width of about 3 mm, which was suspended in the circular muscle direction in 10 mL of a tissue bath filled with a Krebs-Henseleit solution (pH 7.4). The Krebs-Henseleit solution was bubbled with 95% O2 and 5% CO2, and kept at 37° C. The resting tension was set to 0.5 g to record the isometric contraction. After the resting tension was stabilized, contraction was elicited by the addition of 10 μM phenylephrine. After washing and stabilizing, the test compound was added cumulatively to a final concentration of −12 to −5 log M to measure a contractile response. By taking the contractile response by 10 μM phenylephrine as 100%, the ratio of the contractile response in the concentration of the test compound at 1 μM was calculated.
as §1

[5] = biological target: T1, human MT2 receptor (Homo sapiens, UniProt P49286); experiment: Activation of human MT2 receptor in receptor-expressing HEK293 cells (intracellular Ca2+, FLIPR); type: cell-based
T1 sequence (P49286 1-362): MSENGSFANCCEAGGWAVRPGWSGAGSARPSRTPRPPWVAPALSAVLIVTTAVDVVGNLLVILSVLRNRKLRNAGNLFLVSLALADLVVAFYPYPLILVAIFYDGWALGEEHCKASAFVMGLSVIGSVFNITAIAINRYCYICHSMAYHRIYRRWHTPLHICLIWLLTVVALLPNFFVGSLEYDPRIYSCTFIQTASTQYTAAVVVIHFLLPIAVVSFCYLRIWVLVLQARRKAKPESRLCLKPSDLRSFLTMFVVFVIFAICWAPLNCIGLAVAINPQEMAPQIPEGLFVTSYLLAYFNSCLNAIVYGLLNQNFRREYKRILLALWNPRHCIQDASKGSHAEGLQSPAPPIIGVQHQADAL
Procedure: (§2) (1) Isolation of Human MT1 and MT2 Receptor and Construction of Expression Vector
(§3) A human MT1 receptor gene (GenBank Accession No.: NM_005958.3) and a human MT2 receptor gene (GenBank Accession No.: NM_005959.3) were each introduced into an expression vector pCDNA3.1/Zeo (Invitrogen, Inc.).
(§4) (2) Construction of Cells Stably Expressing Human MT1 and Human MT2 Receptor
(§5) The introduction was carried out according to the attached instructions, using a Lipofectoamine (registered trademark) 2000 Reagent (Invitrogen, Inc.). Zeocin and hygromycin were used as a resistant drug, and the cell was incubated for 15 days at 0.02 mg/mL and 0.05 mg/mL, respectively, thereby acquiring drug-resistant clones.
(§6) (3) Measurement of Intracellular Ca^2+ Concentration by FLIPR (Registered Trademark)
(§7) The respective stably expressing cells were dispensed into 96-well poly-D-lysine-coated plates (Falcon Co.) to 40,000 cells/well the day before the experiment, and incubated overnight in a DMEM (Invitrogen, Inc.) medium including 10% FBS at 37° C. and 5% CO2. The medium was replaced with a loading buffer (washing solution (Hank's balanced salt solution (HBSS), 20 mM HEPES-NaOH, 2.5 mM probenecid) including Fluo-4AM (Dojindo Co.) at 4 μM), and incubated for 1 hour at 37° C. and 5% CO2. Thereafter, the cells were washed with a plate washer (ELx405, BIO-TEK Instrument, Inc.) set with the washing solution, and set in an intracellular Ca^2+ concentration measuring systems (FLIPR (registered trademark), Molecular Device Co.). The test compound was dissolved in the washing solution in advance, diluted to a final concentration of −12 to −5 log M, set in a FLIPR (registered trademark) device together with the cells, and added to the cells in the device. At this time, a change in the intracellular Ca^2+ concentrations was measured.
as §1

[6] = biological target: human MT1 receptor (Homo sapiens, UniProt P48039); experiment: Activation of human MT1 receptor in receptor-expressing HEK293 cells (intracellular Ca2+, FLIPR); type: cell-based
Sequence of human MT1 receptor (P48039 whole entry): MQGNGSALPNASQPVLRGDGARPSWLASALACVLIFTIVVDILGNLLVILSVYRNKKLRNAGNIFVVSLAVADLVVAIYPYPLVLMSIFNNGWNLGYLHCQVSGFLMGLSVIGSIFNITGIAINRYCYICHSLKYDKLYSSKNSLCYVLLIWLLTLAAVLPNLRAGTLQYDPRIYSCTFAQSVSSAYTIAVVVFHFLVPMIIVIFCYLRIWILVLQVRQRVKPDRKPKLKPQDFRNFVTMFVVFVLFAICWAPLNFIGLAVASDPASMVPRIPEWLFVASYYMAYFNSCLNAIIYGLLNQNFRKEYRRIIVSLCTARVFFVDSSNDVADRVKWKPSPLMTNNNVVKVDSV
Procedure: as §2, §3, §4, §5, §6, §7, §1

SMILES | phototoxicity action [1] | Kp uu at 0.25 h [2] | Increment value in the urethra pressures (mmHg) [3] [mmHg] | activation at 1 µM [4] [%] | Emax ([5]; HEK293, maximum reaction by ramelteon taken as 100%, solvent only 0%) [%] | pEC50 ([5]; HEK293 cells stably expressing human MT2 and Gq/i chimeric G-protein, intracellular Ca2+ by FLIPR) | Emax ([6]; HEK293, maximum reaction by ramelteon taken as 100%, solvent only 0%, read-out: MT1 Emax (%)) [%] | pEC50 ([6]; HEK293 cells stably expressing human MT1 and Gq/i chimeric G-protein, intracellular Ca2+ by FLIPR) | melting point [°C]
CNC(=O)c1[nH]c2cc(F)c(OC)cc2c1CCNC(=O)C(F)F [Ex 15] | no phototoxicity action | 0.07 | 8.6 ± 0.9 | 261 | 103 | 7.77 | 104 | 8.27 | –
CNC(=O)c1[nH]c2cc(F)c(OC)cc2c1CCNC(C)=O [Ex 56, 3-(2-acetamidoethyl)-6-fluoro-5-methoxy-N-methyl-1H-indole-2-carboxamide] | – | – | – | – | – | – | – | – | 209 to 212
CNC(=O)c1[nH]c2cc(F)c(OC)cc2c1CCNC(=O)C(F)F [Ex 57, 3-{2-[(difluoroacetyl)amino]ethyl}-6-fluoro-5-methoxy-N-methyl-1H-indole-2-carboxamide] | – | – | – | – | – | – | – | – | 196 to 200
